Measurements reported in patent US20040259875A1, “Amine derivatives” (priority 2001, published 2004).

First: CC(=O)Oc1ccc2c(Cl)cc(Cl)c(NC(=O)Nc3cccc(-c4ccccc4Cl)c3)c2c1 [Example 3-1, 5,7-Dichloro-8-({[(2′-chloro-1,1′-biphenyl-3-yl)amino]carbonyl}amino)-2-naphthyl acetate]
Second: CC(=O)Oc1ccc2c(Cl)cc(Cl)c(NC(=O)Nc3cccc(-c4ccc(C)c(Cl)c4)c3)c2c1 [Example 3-4]
The melting point of the first is lower: 180 °C for the first, 260 °C for the second.

Going from `O=C(Nc1ccc2ccccc2c1)Nc1cccc2ccc(O)c(F)c12` [Example 1-53] to `CN(C(=O)Nc1ccc2ccccc2c1)c1cccc2ccc(O)cc12` [Example 1-79], the melting point rises from 189 °C to 215 °C.

Going from `CC(C)c1ccc(NC(=O)Nc2cccc3cc(O)ccc23)cc1` [Example 1-139] to `O=C(NCc1ccc(Br)cc1)Nc1cccc2ccc(O)cc12` [Example 1-71], the melting point rises from 207.5 °C to 210 °C.

Compared with `O=C(Nc1ccc(Cl)c(C(F)(F)F)c1)Nc1cccc2ccc(OC(=O)c3ccccc3)cc12` [Example 1-165], `O=C(Nc1cccc(Cl)c1)Nc1cccc2ccc(OC(=O)c3ccccc3)cc12` [Example 1-166] is lower in melting point: 220 to 222 °C for the first, 214 to 215 °C for the second.

Compared with `CC(=O)Oc1ccc2c(Cl)cc(Cl)c(NC(=O)Nc3ccc(N4CCOCC4)c(Cl)c3)c2c1` [Example 3-13], `CC(=O)Oc1ccc2c(Cl)cc(Cl)c(NC(=O)Nc3cccc(-c4ccc(Cl)c(F)c4)c3)c2c1` [Example 3-5] is higher in melting point: 206 °C for the first, 287 °C for the second.

First: CNc1ccc2ccc(Cl)c(NC(=O)Nc3ccc(Cl)c(C(F)(F)F)c3)c2c1 [Example 1-77]
Second: CNc1ccc2cccc(NC(=O)Nc3ccc(Cl)c(C(F)(F)F)c3)c2c1 [Example 1-74]
The melting point of the first is higher: 258 to 259 °C for the first, 218 to 219 °C for the second.

First: CCOC(=O)c1ccc(NC(=O)Nc2c(Cl)cc(Cl)c3ccc(O)cc23)cc1 [Example 1-13]
Second: CCCc1ccc(NC(=O)Nc2c(Cl)cc(Cl)c3ccc(O)cc23)cc1 [Example 4-1, N-(2,4-Dichloro-7-hydroxy-1-naphthyl)-N′-(4-propylphenyl)urea]
The melting point of the first is higher: 258 to 260 °C for the first, 241 °C for the second.

First: CC(=O)Nc1ccc2cccc(NC(=O)Nc3ccc(Cl)c(C(F)(F)F)c3)c2c1 [Example 9-1, N-{8-[({[4-Chloro-3-(trifluoromethyl)phenyl]amino}carbonyl)amino]-2-naphthyl}acetamide]
Second: Nc1ccc2cccc(NC(=O)Nc3ccc(Cl)c(C(F)(F)F)c3)c2c1 [Example 1-76, N-(7-amino-naphthalen-1-yl)-N′-(4-chloro-3-trifluoromethyl-phenyl)urea]
The melting point of the first is higher: 241 to 242 °C for the first, 232 to 234 °C for the second.

Compared with `O=C(NCc1ccc(Br)cc1)Nc1c(Cl)ccc2ccc(O)cc12` [Example 1-6], `COc1ccc(CNC(=O)Nc2c(Cl)cc(Cl)c3ccc(O)cc23)cc1` [Example 1-31] is lower in melting point: 226 to 229 °C for the first, 223 to 226 °C for the second.

First: CC(=O)c1ccc(-c2cccc(NC(=O)Nc3c(Cl)cc(Cl)c4ccc(O)cc34)c2)cc1 [Example 4-10]
Second: O=C(Nc1ccc2ccccc2c1)Nc1c(Cl)cc(Cl)c2ccc(O)cc12 [Example 1-14]
The melting point of the first is lower: 253 °C for the first, 263 to 265 °C for the second.

Compared with `O=C(Nc1ccc(Cl)cc1)Nc1c(Br)cc(Br)c2ccc(O)cc12` [Example 1-26], `O=C(Nc1ccc(F)cc1)Nc1c(Br)cc(Br)c2ccc(O)cc12` [Example 1-25] is lower in melting point: 229 to 233 °C for the first, 222 to 225 °C for the second.

Compared with `O=C(Nc1cccc(C(F)(F)F)c1)Nc1c(Br)cc(Br)c2ccc(O)cc12` [Example 1-27], `O=C(Nc1cccc(Cl)c1)Nc1c(Br)cc(Br)c2ccc(O)cc12` [Example 1-3] is higher in melting point: 233 to 236 °C for the first, 242 to 243 °C for the second.

Compared with `CCN(CC)c1ccc(NC(=O)Nc2c(Cl)ccc3ccc(O)cc23)cc1` [Example 1-35], `O=C(Nc1ccc(Cl)c(C(F)(F)F)c1)Nc1ccc(Br)c2ccc(O)cc12` [Example 1-72] is higher in melting point: 199.8 to 200.5 °C for the first, 211 °C for the second.

First: O=C(Nc1ccc(F)c(C(F)(F)F)c1)Nc1ccc(Br)c2ccc(O)cc12 [Example 1-73]
Second: O=C(Nc1cccc(Cl)c1Cl)Nc1c(Cl)cc(Cl)c2ccc(O)cc12 [Example 1-39]
The melting point of the first is lower: 215 °C for the first, 300 °C for the second.

Compound `O=C(Nc1cccc(F)c1)Nc1c(Cl)cc(Cl)c2ccc(O)cc12` [Example 1-40] has a melting point of over 300 °C.
For `Cc1cc(NC(=O)Nc2c(Cl)cc(Cl)c3ccc(O)cc23)ccc1Cl` [Example 4-39], the melting point was 240 °C (dec.).
For `O=C(Nc1ccc(C(F)(F)F)cc1)Nc1c(Cl)cc(Cl)c2ccc([O-])cc12.[K+]`, the melting point was 179 °C (dec.).
In the case of `CC(=O)Oc1ccc2c(Cl)cc(Cl)c(NC(=O)Nc3ccc4c(c3)C(=O)c3ccccc3-4)c2c1` [Example 3-10], the melting point is reported as 213 °C (dec.).
In the case of `Cc1cc(NC(=O)Nc2c(Cl)cc(Cl)c3ccc(O)cc23)ccc1F` [Example 4-45], the melting point is reported as 250 to 252 °C (dec.).
For `O=C(Nc1ccc2c(c1)C(=O)c1ccccc1-2)Nc1c(Cl)cc(Cl)c2ccc(O)cc12` [Example 4-36], the melting point was 236 °C (dec.).
Compound `O=C(Nc1cccc(Cl)c1)Nc1c(Cl)cc(Cl)c2ccc(O)cc12` [Example 1-1, N-(3-Chlorophenyl)-N′-(2,4-dichloro-7-hydroxy-1-naphthyl)urea] has a melting point of over 260 °C.
With `Cc1ccc(-c2cccc(NC(=O)Nc3c(Cl)cc(Cl)c4ccc(O)cc34)c2)cc1Cl` [Example 4-18] the melting point was 234 °C (dec.).
`O=C(Nc1ccc2c(c1)CCC2)Nc1c(Cl)cc(Cl)c2ccc(O)cc12` [Example 4-32] showed a melting point of over 300 °C.
With `O=C(Nc1cc(C(F)(F)F)ccc1Cl)Nc1c(Cl)cc(Cl)c2ccc(O)cc12` [Example 1-41] the melting point was over 300 °C.
